Measured values published in ChEMBL document CHEMBL1141521, “Individual stereoisomers of phosphinic dipeptide inhibitor of leucine aminopeptidase” (Bioorg Med Chem Lett, 2008).

Molecular target: T1, Leucine aminopeptidase (Plasmodium falciparum 3D7, UniProt Q8IL11)
T1 sequence (Q8IL11 whole entry): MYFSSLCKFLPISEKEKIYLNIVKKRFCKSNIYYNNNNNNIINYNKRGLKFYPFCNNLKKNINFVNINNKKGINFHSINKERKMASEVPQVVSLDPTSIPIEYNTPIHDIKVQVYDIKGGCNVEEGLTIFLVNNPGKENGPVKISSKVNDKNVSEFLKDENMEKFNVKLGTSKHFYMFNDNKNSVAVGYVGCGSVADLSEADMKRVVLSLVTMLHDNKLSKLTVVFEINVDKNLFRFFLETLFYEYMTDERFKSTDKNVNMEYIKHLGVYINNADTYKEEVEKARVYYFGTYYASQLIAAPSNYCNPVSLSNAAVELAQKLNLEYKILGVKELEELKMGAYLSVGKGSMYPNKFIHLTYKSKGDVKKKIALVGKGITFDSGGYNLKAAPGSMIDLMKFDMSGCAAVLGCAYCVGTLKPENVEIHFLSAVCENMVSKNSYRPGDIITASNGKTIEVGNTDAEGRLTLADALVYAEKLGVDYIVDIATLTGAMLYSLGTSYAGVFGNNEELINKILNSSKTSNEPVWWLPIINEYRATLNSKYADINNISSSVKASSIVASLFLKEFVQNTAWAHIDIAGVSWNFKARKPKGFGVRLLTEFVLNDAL
Test: Inhibition of Plasmodium falciparum recombinant leucine aminopeptidase

Ki: 13.2 nM
SMILES: NC(CCc1ccccc1)P(=O)(O)CC(Cc1ccccc1)C(=O)O (stereo unspecified)
